Measured values from ChEMBL document CHEMBL1201862, “PubChem BioAssay data set” (2004).
Activity calls are given as the source filed them.

target: T1, Replicative DNA helicase DnaB (Mycobacterium tuberculosis, UniProt P9WMR3); assay: DnaB intein splicing inhibitors, dose response, biochemical, cell-free fluorescence (AID 449749); type: functional
T1 sequence (P9WMR3 whole entry): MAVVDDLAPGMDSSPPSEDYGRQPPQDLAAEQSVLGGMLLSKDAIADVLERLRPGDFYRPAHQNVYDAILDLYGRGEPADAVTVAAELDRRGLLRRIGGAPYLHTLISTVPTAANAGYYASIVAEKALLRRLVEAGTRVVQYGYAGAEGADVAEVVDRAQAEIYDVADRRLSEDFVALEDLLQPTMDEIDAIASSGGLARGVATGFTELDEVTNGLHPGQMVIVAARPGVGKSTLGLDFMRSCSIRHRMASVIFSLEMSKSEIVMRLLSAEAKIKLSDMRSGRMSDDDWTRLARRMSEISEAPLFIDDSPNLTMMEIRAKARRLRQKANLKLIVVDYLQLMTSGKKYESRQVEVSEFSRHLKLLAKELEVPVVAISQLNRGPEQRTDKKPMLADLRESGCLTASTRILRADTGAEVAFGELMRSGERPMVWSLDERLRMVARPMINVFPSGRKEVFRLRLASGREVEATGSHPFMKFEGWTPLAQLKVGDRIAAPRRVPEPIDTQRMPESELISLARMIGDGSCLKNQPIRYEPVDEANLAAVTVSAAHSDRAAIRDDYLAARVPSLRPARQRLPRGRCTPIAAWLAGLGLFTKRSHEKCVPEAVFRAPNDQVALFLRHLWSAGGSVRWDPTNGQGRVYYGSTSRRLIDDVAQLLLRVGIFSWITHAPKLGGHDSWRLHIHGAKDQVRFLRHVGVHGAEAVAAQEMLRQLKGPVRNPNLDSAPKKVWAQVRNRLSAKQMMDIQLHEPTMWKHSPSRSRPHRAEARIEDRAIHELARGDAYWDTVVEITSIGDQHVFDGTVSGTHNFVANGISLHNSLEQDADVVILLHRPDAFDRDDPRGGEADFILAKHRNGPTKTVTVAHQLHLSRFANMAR

For `O=C1/C(=C\c2cccc(O)c2O)SC(=S)N1Cc1ccccc1`, which AC50 is on record?
Its AC50 is > 380 µM (inactive).

For `CC(C)(C)c1cc[n+](C2=C([N-]S(=O)(=O)c3cccs3)C(=O)c3ccccc3C2=O)cc1`, which AC50 is on record?
Its AC50 is 0.98 µM (active).

How did the AC50 turn out when `CCc1ccc(S(=O)(=O)/N=C2\C=C(Nc3ccc(O)cc3)C(=O)c3ccccc32)cc1` was run?
The AC50 was 0.416 µM (active).

target: T2, Serine/threonine-protein kinase D3 (Homo sapiens, UniProt O94806); type: functional;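 further: determined within a kinase panel screen, with PRKCN as the panel member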
T2 sequence (O94806 whole entry): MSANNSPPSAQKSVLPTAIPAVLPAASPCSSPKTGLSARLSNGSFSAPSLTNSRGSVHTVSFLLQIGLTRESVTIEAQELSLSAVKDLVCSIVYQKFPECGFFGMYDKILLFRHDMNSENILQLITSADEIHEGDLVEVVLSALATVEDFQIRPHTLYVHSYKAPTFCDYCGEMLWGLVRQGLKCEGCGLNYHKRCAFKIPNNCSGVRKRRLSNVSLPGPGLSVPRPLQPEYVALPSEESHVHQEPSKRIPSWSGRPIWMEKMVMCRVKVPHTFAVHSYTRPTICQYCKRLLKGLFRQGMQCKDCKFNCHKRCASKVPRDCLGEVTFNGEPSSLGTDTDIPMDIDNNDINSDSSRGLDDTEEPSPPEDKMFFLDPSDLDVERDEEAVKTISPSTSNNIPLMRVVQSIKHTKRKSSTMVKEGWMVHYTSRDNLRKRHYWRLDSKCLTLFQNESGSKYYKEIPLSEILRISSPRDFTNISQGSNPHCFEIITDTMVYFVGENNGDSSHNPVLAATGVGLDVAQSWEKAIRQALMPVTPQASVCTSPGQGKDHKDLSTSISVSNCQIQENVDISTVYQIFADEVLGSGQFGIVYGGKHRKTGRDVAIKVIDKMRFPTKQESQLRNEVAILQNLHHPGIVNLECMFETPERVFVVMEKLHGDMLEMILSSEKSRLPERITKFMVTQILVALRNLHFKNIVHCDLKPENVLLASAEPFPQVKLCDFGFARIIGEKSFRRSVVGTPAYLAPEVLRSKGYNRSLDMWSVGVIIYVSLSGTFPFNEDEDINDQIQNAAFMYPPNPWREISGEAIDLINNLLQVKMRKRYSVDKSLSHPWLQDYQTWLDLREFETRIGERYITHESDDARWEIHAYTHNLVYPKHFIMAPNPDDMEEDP

Which Ki does the source give for `COc1c(-c2nc3ccccc3[nH]2)c(O)cc2oc(C)cc(=O)c12` here?
The Ki was 0.794 µM (active).

For `COC(=O)c1c(N)nc2ccccn12`, which Ki is on record?
Its Ki is 50.1 µM (active).

For `Cc1ccc(F)c(NC(=O)Nc2ccc(-c3cccc4[nH]nc(N)c34)cc2)c1` [LINIFANIB], which Ki is on record?
The Ki was > 3.98 µM (inactive).

target: T3, Sentrin-specific protease 7 (Homo sapiens, UniProt Q9BQF6); type: functional;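 further: Luminescence-based dose-response confirmation of ultra-high-throughput screening hits, measuring inhibition of SENP7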
T3 sequence (Q9BQF6 whole entry): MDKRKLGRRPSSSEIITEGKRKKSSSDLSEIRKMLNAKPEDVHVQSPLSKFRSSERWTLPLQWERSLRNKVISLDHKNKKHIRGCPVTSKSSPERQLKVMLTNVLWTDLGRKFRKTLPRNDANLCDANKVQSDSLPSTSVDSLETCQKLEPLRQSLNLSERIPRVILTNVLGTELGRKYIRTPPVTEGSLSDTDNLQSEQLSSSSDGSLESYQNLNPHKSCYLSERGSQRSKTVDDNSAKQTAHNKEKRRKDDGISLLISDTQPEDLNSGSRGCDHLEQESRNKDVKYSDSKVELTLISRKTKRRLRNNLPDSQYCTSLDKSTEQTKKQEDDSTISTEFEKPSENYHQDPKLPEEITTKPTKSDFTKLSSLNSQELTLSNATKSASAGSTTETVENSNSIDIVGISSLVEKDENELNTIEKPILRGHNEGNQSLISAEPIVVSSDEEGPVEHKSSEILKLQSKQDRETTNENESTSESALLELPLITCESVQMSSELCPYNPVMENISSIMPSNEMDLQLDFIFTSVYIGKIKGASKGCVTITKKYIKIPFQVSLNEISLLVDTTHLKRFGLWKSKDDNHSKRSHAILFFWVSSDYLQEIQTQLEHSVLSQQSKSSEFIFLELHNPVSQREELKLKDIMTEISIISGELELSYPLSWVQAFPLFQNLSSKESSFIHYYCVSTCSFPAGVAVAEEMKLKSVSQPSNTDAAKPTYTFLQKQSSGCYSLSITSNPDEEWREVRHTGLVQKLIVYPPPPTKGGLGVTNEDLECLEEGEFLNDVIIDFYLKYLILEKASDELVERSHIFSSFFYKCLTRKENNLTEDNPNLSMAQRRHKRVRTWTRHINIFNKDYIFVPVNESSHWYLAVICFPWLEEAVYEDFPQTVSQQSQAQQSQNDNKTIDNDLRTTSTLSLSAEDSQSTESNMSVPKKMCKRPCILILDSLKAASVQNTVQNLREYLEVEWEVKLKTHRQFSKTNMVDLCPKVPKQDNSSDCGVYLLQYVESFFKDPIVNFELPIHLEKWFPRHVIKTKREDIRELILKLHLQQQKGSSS

With `CCCNC(=O)c1c(N)n(CC2CCCO2)c2nc3ccccc3nc12` (centres undefined) as the molecule, how does the IC50 read?
Its IC50 is 2.83 µM (active).

For `CC(C)(C)c1cc[n+](C2=C([N-]S(=O)(=O)c3cccs3)C(=O)c3ccccc3C2=O)cc1`, which IC50 is on record?
Its IC50 is 8.77 µM (active).

With `Cc1cc([N+](=O)[O-])cc(/C=N\NC(=O)C2COc3ccccc3O2)c1O` (centres undefined) as the molecule, how does the IC50 read?
Its IC50 is 14.5 µM (active).
